Values quoted from earlier work in US20170367972A1, “Formulations and Methods of Treatment for Treating Nail Fungal Infections” (priority 2016, published 2017).

Columns and labels:
dermatophytes [1] = system: dermatophytes
dermatophytes [2] = system: dermatophytes; remark: listed apart in the source

Row | Structure (SMILES) | activity against dermatophytes (dermatophytes [1]) | activity against Candida albicans (Candida albicans) | effectiveness in dermatophytic infections (dermatophytes [2]) | activity against Candida spp. (Candida spp.) | activity against nondermophytic molds (nondermophytic molds)
1 | CN(C/C=C/C#CC(C)(C)C)Cc1cccc2ccccc12 [Terbinafine, terbinafine] | fungicidal activity | only fungistatic activity | – | – | –
2 | COC1=CC(=O)C[C@@H](C)[C@]12Oc1c(Cl)c(OC)cc(OC)c1C2=O [griseofulvin] | active in vitro against most dermatophytes | – | effective only for dermatophytic infections | no activity | no activity
